The values below come from US8466164B2.

The test system of data set [1] is Src-Y416 phosphorylation in SaOS-2. The data set is described as follows: immunoblotting of phospho-Src-Y416 in SaOS-2. Type of data set: cell-based, human. Conditions: SaOS-2, compounds at their IC50, 3 h. The protocol:
Compounds were used at their corresponding IC50. Cells were treated for 3 h prior to their lysis. A) Specific c-Src phosphorylation was evaluated when whole-cell lysates were immunoprobed with anti-nonphospho-Src-Y416 and anti-phospho-Src-Y416 antibodies. B) Graph reports the optical density values relative to immunoreactive bands of phospho-Src-Y416. […] C) Graphical representation of SI-83 (magenta) into the ATP binding pocket of Src. The solvent accessible surface of residues is depicted (blue), while several amino acids, responsible for the major hydrophobic contacts with the binding site, are also shown (cyan).
For Phospho-SrcY416 detection, cells were lysed in ice-cold 0.1% SDS containing a cocktail of protease inhibitors and 1 mM sodium orthovanadate (Sigma-Aldrich). […] All antibodies employed were from Cell Signaling Technology ([…], USA). Proteins were probed with primary antibodies o.n. at 4° C., followed by secondary antibodies for 1 h at room temperature. Detection was obtained by ImmunoStar HRP™ (BioRad). Band areas were detected using ImageScanner™ (Amersham Bioscience, Little Chalfont, GB) and bands' optical densities were analysed by Image Master software (Amersham Bioscience). Band optical densities of Phospho-SrcY416 were normalized against those of total Src as an internal control.

Data set [2] relates to SaOS-2 cells. The data set is described as follows: TUNEL assay on SaOS-2. Conditions: 48 h treatment, 12.5 μM. The class given is cell-based, human.
Data set [3] deals with SaOS-2 cells. The data set is described as follows: MTT cell viability assay on SaOS-2. Particulars: for CV (%) after 24 h (cellular viability with respect to control): 24 h treatment; for CV (%) after 24 h (cellular viability with respect to control) / CV (%) after 48 h (cellular viability with respect to control): control = 100%, mean ± SD; for CV (%) after 48 h (cellular viability with respect to control): 48 h treatment, 25 μM; for IC50: read-out: IC50 on SaOS-2 cell viability, MTT, 1-100 μM, 48 h. In general terms: Formazan colour is commonly taken as a measure of viable cells.

In the next data set the test system is normal human osteoblasts. The data set is described as follows: nodule formation and mineralization (alizarin red S). Conditions: IC5, IC20, IC50 (SaOS-2); for tolerance of treatment by osteoblasts: three weeks.
Data set [4] has as its system primary human osteoblasts. The data set is described as follows: MTT cell viability assay on primary human osteoblasts. Particulars: 48 h; for reduction of osteoblast growth (inhibitory activity): 25 μM.
The subject of data set [5] is SaOS-2 cells. Description: flow cytometric cell cycle/apoptosis analysis on SaOS-2. Conditions: 48 h, 3 μM to 100 μM. (A flow cytometer gives signals particle by particle.)
In data set [6] the test system is primary human osteoblasts. The data set is described as follows: flow cytometric apoptosis analysis on primary osteoblasts. Conditions: for reduction of pro-apoptotic effect on osteoblasts respecting to SaOS-2: at IC50 (determined on SaOS-2), 48 h.
A further data set addresses recombinant human Src (Homo sapiens, UniProt P12931). The data set is described as follows: cell-free Src enzymatic assay. The class given is biochemical. Conditions: calculated from ID50; triplicate, mean values; read-out: Ki toward recombinant human Src.
The subject of the next data set is SaOS-2 xenograft. The data set is described as follows: SaOS-2 xenograft in nude mice. Type of data set: in vivo, CD 1 nude mice. The protocol: In order to evaluate the effect of SI-83 in a preclinical experimental model of osteosarcoma the authors injected s.c. SaOS-2 cells together with Matrigel in nude mice. […] The authors divided mice in three groups containing each 4 mice: mice receiving vehicle (control); mice receiving 50 mg/kg SI-83; mice receiving 100 mg/kg SI-83. The administration of SI-83 determined at endpoint a reduction in xenograft growth respect to control measured as weight reduction (FIG. 6B1). At the dose of 100 mg/kg, SI-83 determined a significant reduction (P<0.01) in tumour weight of about 40% respect to control tumours. Also the administration of 50 mg/kg SI-83 determined a smaller (about 15%) but significant reduction (p<0.05) in tumour volume respect to control (FIG. 6B1). Xenograft tissues were processed for histologic evaluation of phospho-Src expression (FIG. 6B3). Tumour cells in the control group expressed detectable levels of phospho-Src.
CD 1 nude mice (Charles River, Milan, Italy) were maintained under the guidelines established by the authors' Institution (University of L'Aquila, Medical School and Science and Technology School Board Regulations, complying with the Italian government regulation n.116 Jan. 27, 1992 for the use of laboratory animals). Before tumour cells implantation, mice were anesthesized with a mixture of ketamine (25 mg/mL)/xylazine (5 mg/mL). Xenografts were obtained by injecting s.c. 1×10^6 SaOS-2 cells in 100 μL of 12 mg/ml Matrigel (Becton Dickinson). Mice received daily the drug by per os administration at the doses indicated. Tumour growth was monitored daily and at the endpoint, after 26 days, the tumors were excided, weighted and processed for histology. Briefly tumors were fixed in 4% formaldehyde in 0.1 M phosphate buffer, pH 7.2 and embedded in paraffin. Slide-mounted tissue sections (4 μm thick) were deparaffinized in xylene and hydrated serially in 100, 95, and 80% ethanol. Endogenous peroxidases were quenched in 3% H2O2 in PBS for 1 h and then slides were incubated with anti human Src [pY416] phosphospecific antibody (Biosource, Camarillo, Calif., USA) for 1 h at room temperature.

For another data set, the system named is mouse osteoclasts. The data set is described as follows: osteoclast bone resorption assay. Type of data set: cell-based. The text has this:
It is very important to note that there is a significant difference in bone resorption for the control (DMSO) in the two experiments reported in FIG. 4. […] The method used to measure bone resorption is based on the growth in vitro of osteoclasts that then resorb bone. However, this cell-based assay is usually characterized by a significant variability, mainly due to the fact that the basic amount of bone resorption can vary among replicates. Although such a limitation, this assay is widely recognized as the gold standard to assess the ability of compounds to inhibit bone resorption by osteoclasts.^53

Another data set relates to MNNG cells. Description: MTT cell viability assay on MNNG. Particulars: 48 h. Type of data set: cell-based, human.
In a further data set the test system is TE-85. Description: MTT cell viability assay on TE-85. Type of data set: cell-based, human. Particulars: 48 h.
The next data set has as its system U-20S. Description: MTT cell viability assay on U-20S. The class given is cell-based, human. Conditions: 48 h.
For a further data set, the system named is MG63. Description: MTT cell viability assay on MG63. The class given is cell-based, human. Conditions: 48 h.
A short description of a further data set: in vitro. Conditions: male, human, primary human osteoblasts.
The subject of data set [7] is human primary osteoblasts. Description: Hoechst staining of primary osteoblasts. Particulars: 25 μM.
Data set [8] has as its system Ba/F3 cells expressing mutated Bcr-Abl / IM-resistant cell lines. The data set is described as follows: Annexin V/PI apoptotic assay on Ba/F3 cells. The class given is cell-based. Conditions: 5 μM. On the procedure:
Apoptotic assay was performed on 1×10^6 cells and apoptotic cells were recognized by cytofluorimetric analysis of fluorescinated Annexin V (Roche) and PI uptake.

Data set [9] relates to phosphorylation of Bcr-Abl (Tyr245), Src (Tyr416) and Lyn (Tyr507). The data set is described as follows: western blot of kinase phosphorylation in Ba/F3 cells. Type of data set: cell-based. Conditions: 5 μM, up to 24th h of exposure, Imatinib-sensitive and resistant contexts. The protocol: The inhibitory effects of S29 toward the phosphorylation of Bcr-Abl (Tyr245), Src (Tyr416) and Lyn (Tyr507) were assessed using western blot analysis. Whole cell lysates were obtained from 1×10^7 cells (either untreated or following 24 h and 48 h exposure to 5 μM S29) in lysis buffer.
Protein lysates from whole cells were incubated overnight with the primary antibodies (anti-Abl phosphorylated at Tyr245, Cell Signaling; anti-Src phosphorylated at Tyr416, Cell Signaling; anti-Lyn phosphorylated at Tyr507, Cell Signaling; anti-Lyn, Biosource; anti-Beta-actin, Santa Cruz Biotechnology) and then 1 h at rt with the secondary antibodies (Amersham). Beta actin was used for protein loading control. Signal intensities from 3 repeated blots were quantified by a GS-700 Imagining densitometer (BioRad) equipped with a dedicated software (Molecular Analyst).
On the technique in general: A western blot detects proteins with antibodies after separation by electrophoresis.

In general, IC50 refers to the concentration needed to halve the response being measured. The term Ki denotes the dissociation constant of the complex between target and ligand, obtained from inhibition or displacement. A word on the viability: it is a per cent measure of how many cells are alive, often set against a control. Higher therefore signals less harm to the cells.

Sequence of recombinant human Src (P12931 whole entry): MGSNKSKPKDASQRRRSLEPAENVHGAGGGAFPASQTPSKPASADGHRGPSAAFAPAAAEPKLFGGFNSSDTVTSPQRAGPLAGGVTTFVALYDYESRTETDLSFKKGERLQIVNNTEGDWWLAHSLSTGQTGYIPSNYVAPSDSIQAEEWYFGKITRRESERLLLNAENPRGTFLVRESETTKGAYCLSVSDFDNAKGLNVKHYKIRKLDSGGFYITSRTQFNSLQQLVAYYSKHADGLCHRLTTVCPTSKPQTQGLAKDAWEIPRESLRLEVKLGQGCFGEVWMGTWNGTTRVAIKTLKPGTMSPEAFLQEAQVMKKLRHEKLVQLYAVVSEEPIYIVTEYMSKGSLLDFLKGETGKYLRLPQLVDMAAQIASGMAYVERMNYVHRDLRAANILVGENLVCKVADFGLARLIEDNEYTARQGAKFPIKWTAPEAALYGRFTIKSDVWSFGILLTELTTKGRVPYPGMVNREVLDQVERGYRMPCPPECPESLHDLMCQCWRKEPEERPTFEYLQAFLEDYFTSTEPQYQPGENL

For the molecule `CC(C)(C)n1nc(-c2ccc(Cl)cc2)c2c(N)ncnc21` [PP2, reference compound], in data set [1], the “inhibition of phosphorylation of Src at Y416” value is 50%. Moreover, the “pro-apoptotic effect (TUNEL)” value with SaOS-2 cells [2] is “induced apoptosis”. Besides, in the data set on SaOS-2 cells [3] (SaOS-2, MTT), the “concentration at which 83% inhibition of cell viability is obtained” value was “higher than 50 μM”, the “CV (%) after 24 h (cellular viability with respect to control)” value was found to be 36.8 ± 1.7% and the “CV (%) after 48 h (cellular viability with respect to control)” value is 36.4 ± 1.6%. Besides, the 50% inhibitory concentration (IC50) in the data set on SaOS-2 cells [3] amounted to 8.07 µM. Besides, the “tolerance of treatment by osteoblasts” value in the data set on normal human osteoblasts is on record as “did not tolerate drug treatment”. Besides, in the data set on normal human osteoblasts (twice a week, 1-3 weeks), the “percentage of Ca2+ inside calcification nodules” value was “always lower than control”. Also, in data set [4], the “reduction of osteoblast growth (inhibitory activity)” value is given as 50%. For the same molecule, the cell cycle progression result with SaOS-2 cells [5] was “stop cell cycle progression in G0 and G1 phases in a dose-dependent manner”. In addition, in data set [6], the “reduction of pro-apoptotic effect on osteoblasts respecting to SaOS-2” value worked out at 15%.

`CSc1nc(Nc2cccc(Cl)c2)c2cnn(CC(Cl)c3ccccc3)c2n1` (centres unmarked) [SI-83]: the inhibition constant (Ki) on recombinant human Src was 0.6 µM. For the same molecule, the “inhibition of phosphorylation of Src at Y416” value in data set [1] amounted to 55%. The “reduction in tumour volume respect to control” value in the data set on SaOS-2 xenograft (50 mg/kg daily per os, endpoint day 26, p<0.05) is “about 15%”. Besides, in the data set with SaOS-2 xenograft (100 mg/kg daily per os, endpoint day 26, P<0.01), the “reduction in tumour weight respect to control” value is on record as “about 40%”. For the same molecule, the “signs of distress or loss of weight in mice” value with SaOS-2 xenograft (daily administration) is recorded as “did not determine any appreciable sign of distress or loss of weight”. In addition, the “phospho-Src staining of tumour tissues” value in the data set with SaOS-2 xenograft (treated groups, immunohistology Src [pY416]) is reported as “faint or null staining”. The bone resorption result in the data set with mouse osteoclasts (10 and 1 μM) is recorded as “abrogate bone resorption”. In addition, in the data set with mouse osteoclasts (reduced test dose (up to 1 nM)), the “percent inhibition of bone resorption” value is “lower but significant”. Also, in the data set on MNNG cells, the “response of cell viability compared with SaOS-2” value is given as “even more responsive than SaOS-2”. Besides, the “response of cell viability” value in the data set with TE-85, in the data set on U-20S and in the data set with MG63 was “less susceptible” in each case. For the same molecule, the “pro-apoptotic effect (TUNEL)” value with SaOS-2 cells [2] is “strongest pro-apoptotic effect”. In the data set “in vitro”, this molecule yielded a viability at 48 h, 25 µM of around 80%. For the same molecule, the “CV (%) after 24 h (cellular viability with respect to control)” value with SaOS-2 cells [3] (SaOS-2, MTT) is 17.1 ± 1.3%. Further, the “CV (%) after 48 h (cellular viability with respect to control)” value with SaOS-2 cells [3] (SaOS-2, MTT) is recorded as 15.1 ± 0.7%. For the same molecule, the IC50 with SaOS-2 cells [3] stood at 12.6 µM. Moreover, in data set [7], the “cell morphology / DNA damage (Hoechst)” value is listed as “did not alter cell morphology or cause DNA damage”. The “tolerance of treatment by osteoblasts” value with normal human osteoblasts is “better tolerated”. Moreover, the osteoblast viability entry in data set [4] (12.5 μM) was “not affected at all”. Also, the “reduction of osteoblast growth (inhibitory activity)” value in data set [4] amounted to 20%. The “reduction of pro-apoptotic effect on osteoblasts respecting to SaOS-2” value in [6] turned out to be 79%. Further, the “apoptosis induced in osteoblasts respecting to PP2” value in data set [6] (at respective IC50, time course 24, 48, 96 h) was “half of apoptosis”.

On to `Fc1ccc(CNc2ncnc3c2cnn3CC(Cl)c2ccc(Cl)cc2)cc1` (centres unmarked) [S-29], for which the Ki on recombinant human Src was 0.5 µM. Besides, the apoptosis induction entry in [8] (IM-resistant cell lines additioned with IL-3, after 24 h of exposure) is given as “apoptosis occurred”; in data set [8] (mutated cell lines, after 48 h treatment) it was “induced apoptotic death”. Moreover, the “Bcr-Abl and Lyn-Src kinase phosphorylation” value in data set [9] was “Complementary abrogation”.
